Reference: ChEMBL document CHEMBL1629674, “Surveillance of carbapenem-resistant Pseudomonas aeruginosa isolates from Puerto Rican Medical Center Hospitals: dissemination of KPC and IMP-18 beta-lactamases” (2009)
Converted amounts (≈) assume the structure as drawn.

Tests used:
[1] = test system: Pseudomonas aeruginosa; assay: Antimicrobial activity against OprD overproducing Pseudomonas aeruginosa PAO1 expressing mexA and oprD by agar dilution method; assay type: functional
[2] = test system: Pseudomonas aeruginosa; assay: Antimicrobial activity against Pseudomonas aeruginosa PS2 with PFGE phenotype 10B obtained from urine of ICU patient by agar dilution method; assay type: functional
[3] = test system: Pseudomonas aeruginosa; assay: Antimicrobial activity against Pseudomonas aeruginosa PS3 with PFGE phenotype 12 obtained from sputum of ICU patient by agar dilution method; assay type: functional
[4] = test system: Pseudomonas aeruginosa; assay: Antimicrobial activity against Pseudomonas aeruginosa PS4 with PFGE phenotype 9B expressing beta-lactamase IMP-18 obtained from sputum of patient by agar dilution method; assay type: functional
[5] = test system: Pseudomonas aeruginosa; assay: Antimicrobial activity against Pseudomonas aeruginosa PS5 with PFGE phenotype 7A expressing beta-lactamase KPC-2 obtained from sputum of ICU patient by agar dilution method; assay type: functional
[6] = test system: Pseudomonas aeruginosa; assay: Antimicrobial activity against Pseudomonas aeruginosa PS6A with PFGE phenotype 11A obtained from sputum of ICU patient by agar dilution method; assay type: functional
[7] = test system: Pseudomonas aeruginosa; assay: Antimicrobial activity against Pseudomonas aeruginosa PS7A with PFGE phenotype 11D obtained from urine of ICU patient by agar dilution method; assay type: functional
[8] = test system: Pseudomonas aeruginosa; assay: Antimicrobial activity against Pseudomonas aeruginosa PS9 with PFGE phenotype 3B obtained from sputum of patient by agar dilution method; assay type: functional
[9] = test system: Pseudomonas aeruginosa; assay: Antimicrobial activity against Pseudomonas aeruginosa PS10 with PFGE phenotype 1A expressing beta-lactamase KPC-2 obtained from blood of patient by agar dilution method; assay type: functional
[10] = test system: Pseudomonas aeruginosa; assay: Antimicrobial activity against Pseudomonas aeruginosa PS11A with PFGE phenotype 7A obtained from sputum of ICU patient by agar dilution method; assay type: functional
[11] = test system: Pseudomonas aeruginosa; assay: Antimicrobial activity against Pseudomonas aeruginosa PS12 with PFGE phenotype 7B obtained from sputum of patient by agar dilution method; assay type: functional
[12] = test system: Pseudomonas aeruginosa; assay: Antimicrobial activity against Pseudomonas aeruginosa PS13 with PFGE phenotype 11E obtained from sputum of ICU patient by agar dilution method; assay type: functional
[13] = test system: Pseudomonas aeruginosa; assay: Antimicrobial activity against Pseudomonas aeruginosa PS14 with PFGE phenotype 10C obtained from sputum of ICU patient by agar dilution method; assay type: functional
[14] = test system: Pseudomonas aeruginosa; assay: Antimicrobial activity against Pseudomonas aeruginosa PS15A with PFGE phenotype 10A obtained from blood of patient by agar dilution method; assay type: functional
[15] = test system: Pseudomonas aeruginosa; assay: Antimicrobial activity against Pseudomonas aeruginosa PS17B with PFGE phenotype 11D expressing beta-lactamase KPC-2 obtained from blood of ICU patient by agar dilution method; assay type: functional
[16] = test system: Pseudomonas aeruginosa; assay: Antimicrobial activity against Pseudomonas aeruginosa PS18A with PFGE phenotype 11D obtained from CSF of ICU patient by agar dilution method; assay type: functional
[17] = test system: Pseudomonas aeruginosa; assay: Antimicrobial activity against Pseudomonas aeruginosa PS19A with PFGE phenotype 11C obtained from urine of patient by agar dilution method; assay type: functional
[18] = test system: Pseudomonas aeruginosa; assay: Antimicrobial activity against Pseudomonas aeruginosa PS20A with PFGE phenotype 11D obtained from skin of patient by agar dilution method; assay type: functional
[19] = test system: Pseudomonas aeruginosa; assay: Antimicrobial activity against Pseudomonas aeruginosa PS21 with PFGE phenotype 11F obtained from skin of patient by agar dilution method; assay type: functional
[20] = test system: Pseudomonas aeruginosa; assay: Antimicrobial activity against Pseudomonas aeruginosa PS22 with PFGE phenotype 3A obtained from urine of patient by agar dilution method; assay type: functional
[21] = test system: Pseudomonas aeruginosa; assay: Antimicrobial activity against Pseudomonas aeruginosa PS23 with PFGE phenotype 4A expressing beta-lactamase KPC-2 obtained from blood of patient by agar dilution method; assay type: functional
[22] = test system: Pseudomonas aeruginosa; assay: Antimicrobial activity against Pseudomonas aeruginosa PS25 with PFGE phenotype 1A obtained from sputum of patient by agar dilution method; assay type: functional
[23] = test system: Pseudomonas aeruginosa; assay: Antimicrobial activity against Pseudomonas aeruginosa PS26 with PFGE phenotype 3A expressing beta-lactamase OXA-2 obtained from sputum of ICU patient by agar dilution method; assay type: functional
[24] = test system: Pseudomonas aeruginosa; assay: Antimicrobial activity against Pseudomonas aeruginosa PS28 with PFGE phenotype 6 expressing beta-lactamase KPC-5 obtained from skin of patient by agar dilution method; assay type: functional
[25] = test system: Pseudomonas aeruginosa; assay: Antimicrobial activity against Pseudomonas aeruginosa PS29 with PFGE phenotype 11D obtained from sputum of patient by agar dilution method; assay type: functional
[26] = test system: Pseudomonas aeruginosa; assay: Antimicrobial activity against Pseudomonas aeruginosa PS30 with PFGE phenotype 11D obtained from sputum of patient by agar dilution method; assay type: functional
[27] = test system: Pseudomonas aeruginosa; assay: Antimicrobial activity against Pseudomonas aeruginosa PS31 with PFGE phenotype 11B obtained from skin of patient by agar dilution method; assay type: functional
[28] = test system: Pseudomonas aeruginosa; assay: Antimicrobial activity against Pseudomonas aeruginosa PS33 with PFGE phenotype 9A obtained from blood of patient by agar dilution method; assay type: functional
[29] = test system: Pseudomonas aeruginosa; assay: Antimicrobial activity against Pseudomonas aeruginosa PS34 with PFGE phenotype 4A obtained from blood of ICU patient by agar dilution method; assay type: functional
[30] = test system: Pseudomonas aeruginosa; assay: Antimicrobial activity against Pseudomonas aeruginosa PS35 with PFGE phenotype 11A obtained from urine of patient by agar dilution method; assay type: functional
[31] = test system: Pseudomonas aeruginosa; assay: Antimicrobial activity against Pseudomonas aeruginosa PS36 with PFGE phenotype 11B obtained from urine of patient by agar dilution method; assay type: functional
[32] = test system: Pseudomonas aeruginosa; assay: Antimicrobial activity against Pseudomonas aeruginosa PS37 with PFGE phenotype 11D obtained from sputum of patient by agar dilution method; assay type: functional
[33] = test system: Pseudomonas aeruginosa; assay: Antimicrobial activity against Pseudomonas aeruginosa PS39 with PFGE phenotype 8 expressing beta-lactamase IMP-18 obtained from urine of patient by agar dilution method; assay type: functional
[34] = test system: Pseudomonas aeruginosa; assay: Antimicrobial activity against Pseudomonas aeruginosa PS40 with PFGE phenotype 5 expressing beta-lactamase KPC-2, OXA-2 obtained from urine of patient by agar dilution method; assay type: functional
[35] = test system: Pseudomonas aeruginosa; assay: Antimicrobial activity against Pseudomonas aeruginosa PS41 with PFGE phenotype 11D obtained from urine of patient by agar dilution method; assay type: functional
[36] = test system: Pseudomonas aeruginosa; assay: Antimicrobial activity against Pseudomonas aeruginosa PS43 with PFGE phenotype 2 expressing beta-lactamase KPC-2, OXA-2 obtained from skin of ICU patient by agar dilution method; assay type: functional
[37] = test system: Pseudomonas aeruginosa; assay: Antimicrobial activity against Pseudomonas aeruginosa PS44 with PFGE phenotype 13 expressing beta-lactamase IMP-18 obtained from blood of patient by agar dilution method; assay type: functional
[38] = test system: Pseudomonas aeruginosa; assay: Antimicrobial activity against Pseudomonas aeruginosa PS1 with PFGE phenotype 9C negative for blaIMP, blaVIM and blaKPC obtained from sputum of patient by agar dilution method

Row | SMILES | MIC [1] [µg/mL] | MIC [2] [µg/mL] | MIC [3] [µg/mL] | MIC [4] [µg/mL] | MIC [5] [µg/mL] | MIC [6] [µg/mL] | MIC [7] [µg/mL] | MIC [8] [µg/mL] | MIC [9] [µg/mL] | MIC [10] [µg/mL] | MIC [11] [µg/mL] | MIC [12] [µg/mL] | MIC [13] [µg/mL] | MIC [14] [µg/mL] | MIC [20] [µg/mL] | MIC [23] [µg/mL] | MIC [28] [µg/mL] | MIC [36] [µg/mL] | MIC [37] [µg/mL] | MIC [38] [µg/mL] | other results
1 | CC(C)(O/N=C(\C(=O)N[C@@H]1C(=O)N2C(C(=O)[O-])=C(C[n+]3ccccc3)CS[C@H]12)c1csc(N)n1)C(=O)O [CEFTAZIDIME] | 1 (≈ 1.83 µM) | 128 (≈ 234 µM) | 4 (≈ 7.32 µM) | > 128 | 64 (≈ 117 µM) | 32 (≈ 58.5 µM) | 64 (≈ 117 µM) | 8 (≈ 14.6 µM) | 64 (≈ 117 µM) | 32 (≈ 58.5 µM) | 64 (≈ 117 µM) | 64 (≈ 117 µM) | 64 (≈ 117 µM) | 128 (≈ 234 µM) | 16 (≈ 29.3 µM) | 8 (≈ 14.6 µM) | > 128 | 16 (≈ 29.3 µM) | > 128 | 2 (≈ 3.66 µM) | MIC [15]: 64 µg/mL (≈ 117 µM); MIC [16]: 32 µg/mL (≈ 58.5 µM); MIC [17]: 64 µg/mL (≈ 117 µM); MIC [18]: 64 µg/mL (≈ 117 µM); MIC [19]: 64 µg/mL (≈ 117 µM); MIC [21]: 128 µg/mL (≈ 234 µM); MIC [22]: 64 µg/mL (≈ 117 µM); MIC [24]: 128 µg/mL (≈ 234 µM); MIC [25]: 64 µg/mL (≈ 117 µM); MIC [26]: 64 µg/mL (≈ 117 µM); MIC [27]: 64 µg/mL (≈ 117 µM); MIC [29]: 64 µg/mL (≈ 117 µM); MIC [30]: 64 µg/mL (≈ 117 µM); MIC [31]: 64 µg/mL (≈ 117 µM); MIC [32]: 64 µg/mL (≈ 117 µM); MIC [33]: > 128 µg/mL; MIC [34]: 32 µg/mL (≈ 58.5 µM); MIC [35]: 64 µg/mL (≈ 117 µM)
2 | C[C@@H](O)[C@H]1C(=O)N2C(C(=O)O)=C(SCCNC=N)C[C@H]12 [IMIPENEM ANHYDROUS] | 1 (≈ 3.34 µM) | 64 (≈ 214 µM) | 16 (≈ 53.4 µM) | > 64 | > 64 | > 64 | > 64 | 8 (≈ 26.7 µM) | > 64 | > 64 | > 64 | > 64 | 64 (≈ 214 µM) | 32 (≈ 107 µM) | 8 (≈ 26.7 µM) | 8 (≈ 26.7 µM) | 64 (≈ 214 µM) | 16 (≈ 53.4 µM) | 64 (≈ 214 µM) | 16 (≈ 53.4 µM) | MIC [15]: > 64 µg/mL; MIC [16]: > 64 µg/mL; MIC [17]: > 64 µg/mL; MIC [18]: > 64 µg/mL; MIC [19]: > 64 µg/mL; MIC [21]: > 64 µg/mL; MIC [22]: > 64 µg/mL; MIC [24]: > 64 µg/mL; MIC [25]: > 64 µg/mL; MIC [26]: > 64 µg/mL; MIC [27]: > 64 µg/mL; MIC [29]: > 64 µg/mL; MIC [30]: > 64 µg/mL; MIC [31]: > 64 µg/mL; MIC [32]: > 64 µg/mL; MIC [33]: > 64 µg/mL; MIC [34]: > 64 µg/mL; MIC [35]: > 64 µg/mL
3 | C[C@@H](O)[C@H]1C(=O)N2C(C(=O)O)=C(S[C@@H]3CN[C@H](C(=O)N(C)C)C3)[C@H](C)[C@H]12 [MEROPENEM] | 0.5 (≈ 1.3 µM) | 16 (≈ 41.7 µM) | 8 (≈ 20.9 µM) | – | – | – | – | 16 (≈ 41.7 µM) | – | – | 32 (≈ 83.4 µM) | – | 16 (≈ 41.7 µM) | 16 (≈ 41.7 µM) | 16 (≈ 41.7 µM) | 16 (≈ 41.7 µM) | 32 (≈ 83.4 µM) | 32 (≈ 83.4 µM) | 32 (≈ 83.4 µM) | 8 (≈ 20.9 µM) | –
